We go through ten substances from patent US20250262297A1, “ALLERGY ANTIGEN AND EPITOPE THEREOF” (HOYU CO., LTD., priority 2017, published 2025).

One experiment deals with IgE antibody present in the serum of a patient allergic to a soybean. The experiment in a line: Epitope mapping and overlapping peptide fragments on SPOT membrane, immunoblotting. The settings on record: procedure of (B), overlapping. Format: binding, human. Here is the method: Epitope mapping was carried out using a library of overlapping peptide fragments (length: 15 amino acids) corresponding to the sequences of proteins bound patient-specifically to IgE antibodies in serum, which were obtained as a result of 2D-western of soybeans.
The peptides to be synthesized were shifted by 10 amino acids.
For preparation of peptide arrays, peptide synthesis of interest was carried out in incremental steps on a modified cellulose membrane by the Intavis SPOT synthesis technique, which is a technique of synthesizing peptides of interest through 9-fluorenylmethoxycarbonyl (Fmoc) chemical reaction, using an automated synthesis apparatus (Intavis MultiPep RS). […]
The presence or absence of binding, to each peptide fragment, of an IgE antibody present in the serum of a patient allergic to a soybean was measured by immunoblotting using the membrane on which the peptide fragments were synthesized by SPOT. […]
Thereafter, for the sequences of peptides bound patient-specifically to IgE antibodies in serum in the epitope mapping described above in (A), a library of overlapping peptide fragments (length: 10 amino acids) was obtained as sequences having the sequences of these peptides as well as additional sequences subsequent to the peptides in the amino acid sequences of antigen proteins on which the epitopes were detected. […]
As for “SEQ ID NO: 871: amino acids 1-15 of SEQ ID NO: 495 (seed biotin-containing protein SBP65-like isoform X1) (MASEQMPRRENNSNR; epitope)”, the “identified as epitope (common sequence of peptides bound to IgE antibodies from allergic patients)” value is listed as “identified as epitopes”.

Another experiment concerns IgE antibodies from soybean-allergic patients. As to the kind of experiment: Immunoblotting of two-dimensional electrophoresis pattern of soybean proteins with patient serum. Format: binding, human. The following applies: spot in 2D electrophoresis gel of soybean proteins; patient serum compared with healthy subject serum. From the text:
Transfer to membrane was done using the following transfer system and transfer buffer. • Transfer system: XCell SureLock Mini-Cell and XCell II Blot Module (produced by Life Technologies) • Transfer buffer: NuPAGE Transfer Buffer (X20) (produced by Life Technologies), used in a form diluted 20-fold with milliQ water.
To be specific, proteins in the two-dimensional electrophoresis gels were transferred to a membrane (PVDF membrane) according to the following procedure. • (1) The PVDF membrane was immersed in 100% methanol followed by milliQ water, and then moved into the transfer buffer to hydrophilize the PVDF membrane. • (2) After sponge, filter paper, the gels treated by second-dimensional SDS-PAGE, the hydrophilized PVDF membrane, filter paper, and sponge were put in place in this order, the transfer system was energized at a constant voltage of 30 V for one hour.
Immunoblotting of the membrane was carried out using, as a primary antibody, a serum sample from a patient with a soybean allergy or a serum sample from a healthy subject.
Immunoblotting of the membrane was carried out according to the following procedure. • (1) The transferred membrane was shaken in a 5% skim milk/PBST solution (a PBS buffer containing 0.3% Tween 20 nonionic surfactant) at room temperature for one hour. • (2) The membrane was left to stand in a solution of 3% primary antibody serum in 5% skim milk/PBST at room temperature for one hour. • (3) The membrane was washed with a PBST solution (5 min.×3 times). • (4) The membrane was left to stand in a 1:2500 dilution of the secondary antibody, anti-human IgE-HRP (horseradish peroxidase), with a 3% skim milk/PBST solution at room temperature for one hour. • (5) The membrane was washed with a PBST solution (5 min.×3 times). • (6) The membrane was left to stand in Pierce Western Blotting Substrate Plus (produced by Thermo Fisher Scientific) for 5 minutes.
The membrane obtained through the foregoing series of treatments was subjected to fluorescent image scanning on Typhoon 9400 (produced by GE).
The immunoblots obtained with the serum from the soybean-allergic patient were compared with those obtained with the control serum from the healthy subject.
For orientation: Immunoblotting shows a protein as a band on a membrane.
Consider “glyceraldehyde-3-phosphate dehydrogenase isoform X1 [Spot 29α]”, for which the “specific binding to IgE antibodies from soybean-allergic patients” value (shortened to “specific binding to IgE antibodies”) is on record as “specific binding”.

For heat shock cognate protein 80 [Spot 2α], the “specific binding to IgE antibodies” value is reported as “specific binding”.

In the case of “embryo-specific urease isoform X1 [Spot 4α]”, the “specific binding to IgE antibodies” value is reported as “specific binding”.

Take “seed biotin-containing protein SBP65-like isoform X1 [Spot 38α]”: the “specific binding to IgE antibodies” value is on record as “specific binding”.

With “pyrophosphate-fructose 6-phosphate 1-phosphotransferase subunit alpha-like [Spot 12α]”, the “specific binding to IgE antibodies” value is recorded as “specific binding”.

With “lysine-tRNA ligase, cytoplasmic-like isoform X2 [Spot 9α]”, the “specific binding to IgE antibodies” value is “specific binding”.

Take “UTP-glucose-1-phosphate uridylyltransferase [Spot 15α]”: the “specific binding to IgE antibodies” value is given as “specific binding”.

With methionine synthase [Spot 7α], the “specific binding to IgE antibodies” value was “specific binding”.

On to elongation factor 1-alpha [Spot 35α], for which the “specific binding to IgE antibodies” value is “specific binding”.

The test system of the next experiment is IgE antibody from one patient having allergies to a soybean, a peach and an apple. As to the kind of experiment: ELISA of biotinylated peptides, study on cross-reactivity. It counts as binding, human. The settings on record: FIG. 6. Here is the method:
The binding activity of peptides comprising the amino acid sequences of SEQ ID NOS: 871, 984 and 985 against an IgE antibody from one patient having allergies to a soybean, a peach and an apple was confirmed by ELISA. The peptides were synthesized such that the peptides were N-terminally biotinylated by the Fmoc method.
To be specific, ELISA was carried out according to the following procedure. • (1) The concentrations of the biotinylated peptides were adjusted to 1 μg/mL with PBST. • (2) Each peptide solution was added at 40 μL to each well of a 384-well plate coated with streptavidin, and shaken at room temperature for one hour. After collection of the solution, the wells were washed with PBS five times. • (3) A 1:5 dilution of Blocking one (diluted with MQ) was added at 40 μL thereto and shaken at room temperature for 15 minutes. After removal of the solution, the wells were washed with PBS five times. • (4) A diluted serum solution (1:10, diluting solution: Blocking one produced by Nacalai Tesque, Inc.) was added at 40 μL thereto and shaken at room temperature for one hour. After removal of the solution, the wells were washed with PBS five times. • (5) A diluted secondary antibody solution (1:5000, diluting solution: Blocking one produced by Nacalai Tesque, Inc.) was added at 40 μL thereto and shaken at room temperature for one hour. […] Absorbance at 450 nm was measured.
For “SEQ ID NO: 871: amino acids 1-15 of SEQ ID NO: 495 (seed biotin-containing protein SBP65-like isoform X1) (MASEQMPRRENNSNR; epitope)”, the “binding to IgE antibody from the allergic patient compared with IgE antibody from a healthy subject” value was “bound more strongly”.

Staying with this experiment, now noted: peptide 1 μg/mL, serum 1:10, absorbance at 450 nm, FIG. 6.
“SEQ ID NO: 871: amino acids 1-15 of SEQ ID NO: 495 (seed biotin-containing protein SBP65-like isoform X1) (MASEQMPRRENNSNR; epitope)”: the “binding activity against the IgE antibody from the patient” value is recorded as “exhibited binding activity”.
